In PMC7367207 (2020):

Tests used:
[1] = system: crystallized SAM/SAH riboswitch (RNA1-26 + RNA2-9) (RNA, riboswitch, 5-bromocytidine at 4 of strand 1) GGUCACAACGGCUUCCUGGCGUGACC/AUUGGAGCA; assay: X-ray crystallography; settings: crystal
[2] = system: U23isoC-modified SAM/SAH riboswitch (RNA, riboswitch, isocytidine at 21 (paper position 23, replaces U)) UACCUGUCACAACGGCUUCCUGGCGUGACGAGGUGACCUCAGUGGAGCAA; assay: ITC; settings: 100 mM K+, 10 mM Mg2+; 40 mM HEPES pH 7.0, 298 K; 40 µM RNA, 1 mM ligand stock (legend; methods: 500 µM)
[3] = system: U23C-modified SAM/SAH riboswitch (RNA, riboswitch) UACCUGUCACAACGGCUUCCCGGCGUGACGAGGUGACCUCAGUGGAGCAA; assay: ITC; settings: 100 mM K+, 10 mM Mg2+; 40 mM HEPES pH 7.0, 298 K; 40 µM RNA, 1 mM ligand stock (legend; methods: 500 µM)
[4] = system: G46N7CH-modified SAM/SAH riboswitch (RNA, riboswitch, 7-deazaguanosine (N7 to CH) at 44 (paper position 46)) UACCUGUCACAACGGCUUCCUGGCGUGACGAGGUGACCUCAGUGGAGCAA; assay: ITC; settings: 100 mM K+, 10 mM Mg2+; 40 mM HEPES pH 7.0, 298 K; 40 µM RNA, 1 mM ligand stock (legend; methods: 500 µM)
[5] = system: smFRET SAM/SAH riboswitch with 3' DNA extension on anchor DNA (DNA:RNA, riboswitch, 3' 18 nt of strand 1 and all of strand 2 are DNA) GAUACCUGUCACAACGGCUUCCUGGCGUGACGAGGUGACCUCAGUGGAGCAAACCGCTGCCGTCGCTCCG/CGGAGCGACGGCAGCGGT; assay: single-molecule FRET, high-FRET fraction; settings: 100 mM K+, 2 mM Mg2+; 40 mM HEPES pH 7.5, surface-immobilised RNA, two-state isotherm
[6] = system: SAM/SAH riboswitch G44U (RNA, riboswitch) UACCUGUCACAACGGCUUCCUGGCGUGACGAGGUGACCUCAUUGGAGCAA; assay: ITC; settings: 100 mM K+, 10 mM Mg2+; 40 mM HEPES-K pH 7.0, 298 K
[7] = system: SK209-50 SAM/SAH riboswitch (wt) (RNA, riboswitch) UACCUGUCACAACGGCUUCCUGGCGUGACGAGGUGACCUCAGUGGAGCAA; assay: ITC; settings: 100 mM K+, 10 mM Mg2+; 40 mM HEPES-K pH 7.0, 298 K
[8] = system: G44O2'H-modified SAM/SAH riboswitch (RNA, riboswitch, 2'-deoxyguanosine at 42 (paper position 44)) UACCUGUCACAACGGCUUCCUGGCGUGACGAGGUGACCUCAGUGGAGCAA; assay: ITC; settings: 100 mM K+, 10 mM Mg2+; 40 mM HEPES pH 7.0, 298 K; 40 µM RNA, 1 mM ligand stock (legend; methods: 500 µM)

| Kd [5] [µM] | Kd [7] [µM] | binding [1] | Compound | also measured |
| --- | --- | --- | --- | --- |
| – | – | – | CSC[C@H]1O[C@@H](n2cnc3c(N)ncnc32)[C@H](O)[C@@H]1O | binding ([1]; PDB title says AMP, ligand record MTA): yes |
| 10 | 19 ± 2 | – | C[S+](CC[C@H](N)C(=O)O)C[C@H]1O[C@@H](n2cnc3c(N)ncnc32)[C@H](O)[C@@H]1O (stereo partly shown) | binding [2]: no; binding [3]: no; binding ([1]; also 6YMM in space group P312): yes; binding [4]: no; Kd [6]: 13 ± 3 µM; binding [8]: weak |
| – | 12 ± 1 | yes | NCCCSC[C@H]1O[C@@H](n2cnc3c(N)ncnc32)[C@H](O)[C@@H]1O | – |
| – | – | yes | Nc1ncnc2c1ncn2[C@@H]1O[C@H](CO)[C@@H](O)[C@H]1O | – |
| – | – | yes | Nc1ncnc2c1ncn2[C@@H]1O[C@H](COP(=O)(O)O)[C@@H](O)[C@H]1O | – |
| 6 | 20 ± 2 | – | Nc1ncnc2c1ncn2[C@@H]1O[C@H](CSCC[C@H](N)C(=O)O)[C@@H](O)[C@H]1O | binding ([1]; 1.7 Å, second SAH only at lattice contact): yes |
